The assay has as its target Orexin/Hypocretin receptor type 1 (Homo sapiens) (UniProt O43613). Put plainly: HCRTR1 antagonism measured by time-resolved FRET – cell-based, HTRF, OX1R antagonist probe project, late-stage follow-up (AID 624410). As to conditions: OX1R-expressing cells, HTRF antagonist assay.

Active and inactive are the calls of the source. No rule for the calls is given here.

We go through 25 molecules from PubChem BioAssay AID624410 (The Scripps Research Institute Molecular Screening Center, 2012).

Sequence of Orexin/Hypocretin receptor type 1 (Homo sapiens) (O43613 whole entry, looked up): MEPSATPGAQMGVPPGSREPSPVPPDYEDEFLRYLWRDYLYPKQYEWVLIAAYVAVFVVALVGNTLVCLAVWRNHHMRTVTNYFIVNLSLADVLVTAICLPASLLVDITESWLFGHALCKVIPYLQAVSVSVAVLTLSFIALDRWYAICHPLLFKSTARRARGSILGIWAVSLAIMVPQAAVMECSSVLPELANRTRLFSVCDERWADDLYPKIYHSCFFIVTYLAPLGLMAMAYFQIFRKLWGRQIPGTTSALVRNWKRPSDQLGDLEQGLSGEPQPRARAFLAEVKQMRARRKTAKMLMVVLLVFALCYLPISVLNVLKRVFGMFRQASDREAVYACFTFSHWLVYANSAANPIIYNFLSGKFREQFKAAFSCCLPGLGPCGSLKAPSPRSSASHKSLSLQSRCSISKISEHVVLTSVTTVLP

Take `COc1ccc(OC)c(S(=O)(=O)NCC(c2ccco2)N2CCc3ccccc32)c1` (stereo not given): the IC50 is 2710 nM.
Regarding `Cc1cccc(C=NNC(=O)c2cc3c(s2)-c2ccccc2CC3)c1`, the IC50 was 2820 nM.
On to `COc1cc(OC)c(-c2nc3ccccc3s2)cc1OC`, for which the IC50 was 1900 nM.
In the case of `Cc1cccc(NC(=O)[C@@H]2CCCN2S(=O)(=O)c2ccc(Cl)cc2)c1`, the IC50 was 2030 nM.
Then `COCCCNC(=O)CCC(=O)NNc1nc2ccccc2c2nc(-c3ccccc3)nn12`, with 6540 nM.
To `Cc1noc(C)c1COc1ccc(C(=O)OCC(=O)N2CC(=O)Nc3ccccc32)cc1` belongs “inactive”.
Then `O=c1cc(CN2CC(O)Cc3ccc4ccccc4c32)nc2sccn12` (stereo not given), with “inactive”; and `Fc1cccc(Nc2nc3ccccc3n3cnnc23)c1`, with 3340 nM; and `Cc1c(NS(=O)(=O)c2cccc(C(=O)OCC(=O)N(C)C3CCCCC3)c2)c(=O)n(-c2ccccc2)n1C`, with 750 nM.
In the case of `O=C(CSc1ccc(-c2ccccc2)nn1)c1cccs1`, the IC50 was 1960 nM.
Take `COc1cccc(/C=C2/Oc3ccccc3N(CC(=O)NCC3CCCO3)C2=O)c1` (stereo not given): the IC50 was 468 nM.
To `CC(=C/c1ccccc1)/C=C1/SC(N2CCOCC2)=NC1=O` belongs 3020 nM; to `Cc1ccccc1NC(=O)C1CCCN1S(=O)(=O)c1ccccc1C(F)(F)F` (stereo not given), 3740 nM.
On to `CCN(CC)c1ccc(NC(=O)Cn2c(C(C)NC(=O)c3ccccc3)nc3ccccc32)cc1` (stereo not given), for which the IC50 is 655 nM.
Then `CCn1c(SCC(=O)Nc2ccc3c(c2)c2ccccc2n3CC)nnc1-c1cnccn1`, with 844 nM; and `CCOc1ccccc1C(=O)Nc1ccc2nc3n(c(=O)c2c1)CCCCC3`, with 769 nM; and `CSc1cccc(N2CC(C(=O)NCCN3C(=O)S/C(=C\c4cccnc4)C3=O)CC2=O)c1` (stereo not given), with 1900 nM.
Take `CCc1cc2c(SCC(=O)N(CC)c3c(N)n(Cc4ccccc4)c(=O)[nH]c3=O)ncnc2s1`: the IC50 is 1610 nM.
Then `CSc1cccc(NC(=O)C2CCCN2S(=O)(=O)c2ccc(Br)s2)c1` (stereo not given), with 386 nM; and `O=C(CN1C(=O)/C(=C\c2cccc(Br)c2)Oc2ccccc21)NCC1CCCO1` (stereo not given), with 277 nM.
Take `CCSC1=C(C#N)C(c2ccccc2Cl)C(C(=O)c2cccs2)C(O)(C(F)(F)F)N1` (stereo not given): the IC50 was 611 nM.
As for `CCOC(=O)N1CCN(C(=O)CSc2ccc(-c3ccccc3)nn2)CC1`, the IC50 entry was “inactive”.
`Cc1cc(Cl)ccc1OCCCC(=O)NCCN1C(=O)S/C(=C\c2cccnc2)C1=O`: the IC50 is 437 nM.
To `CCc1cc(C(=O)OCC(=O)N2CCC(c3ccccc3)=N2)sc1C` belongs 2190 nM; to `Cc1ccc(-c2csc3nnc(SCC(=O)Nc4nsc(-c5ccccc5)n4)n23)cc1`, 3060 nM.
